Results reported in paper PMC12673918, “Design, Synthesis, and Selective Antiproliferative Activity of Indolizine Derivatives as Microtubule Destabilizers” (Archiv Der Pharmazie, 2025).

Assays:
[1] = system: BT‐20 breast cancer cells; experiment: Cell‐cycle assay by flow cytometry; assay type: cell-based; conditions: 2.5 µM, 24 h
Experimental: BT‐20 cells were seeded in 10 cm plates (1.5 × 10⁶ cells/plate) and incubated at 37°C with 5% CO₂ for 24 h. Subsequently, the cells were treated with different compounds at a concentration of 2.5 µM for 24 h. After treatment, the cells were collected by centrifugation and fixed in cold 70% ethanol for 1 h at 4°C. The cells were then washed, collected by centrifugation, and treated with RNase A (100 μg/mL, Sigma‐Aldrich) for 30 min at 37°C, followed by staining with propidium iodide (50 μg/mL) for 15 min at 37°C. Finally, the percentages of cells in each phase of the cell cycle were determined using FACSCalibur flow cytometry (BD Biosciences—San Jose, CA, USA). Cell‐cycle distribution was analyzed using ModFit LT V3.3 software.

[2] = system: BT‐20 breast cancer cells; experiment: Western blot of cell‐cycle, apoptosis and signaling proteins; assay type: cell-based; conditions: 2.5 µM for 24 h
Experimental: Cells were seeded in 10 cm plates (1.5 × 10⁶ cells/plate) and incubated for 24 h. Subsequently, the cells were treated with the compounds at a concentration of 2.5 µM for 24 h. After treatment, the cells were collected, and the proteins were isolated. A total of 30 µg of proteins were separated electrophoretically on a sodium dodecyl sulfate‐polyacrylamide gel (SDS‐PAGE) and transferred onto a polyvinylidene fluoride (PVDF) membrane (GE Healthcare) using the PowerBlotter Station (Invitrogen) according to the manufacturer's recommendations. After transfer, the membrane was blocked with a 5% (w/v) nonfat milk solution in TBS‐T (0.1 M Tris (pH 7.5), 0.9% NaCl, 0.1% Tween‐20) at room temperature for 1 h under gentle agitation. The membrane was then washed with TBS‐T and incubated with primary antibodies under agitation for approximately 16 h at 4°C. The primary antibodies used were: c‐Myc (#5605), ß‐tubulin (#2128), p21 (#2947), Cyclin D1 (#2978), Bcl‐2 (#15071), p‐AKT ser473 (#4058), and GAPDH (#2118) (Cell Signaling Technology). After primary antibody incubation, the membranes were washed with TBS‐T and incubated at room temperature for 1 h in a TBS‐T solution containing 5% nonfat milk and the HRP‐conjugated secondary antibody. Following the washes with TBS‐T, the membranes were incubated with the SuperSignal West Dura substrate (Thermo Scientific). Immunodetection was analyzed using the ChemiDoc imaging system (Bio‐Rad).

tubulin = experiment: Tubulin polymerization (inhibition) assay kit; assay type: biochemical; conditions: for effect on tubulin polymerization curves (RFU): compounds 5 µM, vs control and paclitaxel; for IC50: n = 2
Experimental: To evaluate the effect of the compounds on tubulin polymerization, the Tubulin Polymerization Assay Kit (Cytoskeleton Inc.) was used according to the manufacturer's instructions. Briefly, 5 µL of the compounds (final concentration ranging from 0.1 to 100 µM) were pipetted per well into a pre‐warmed 96‐well black‐bottom plate at 37°C. After 1 min, 55 µL of the tubulin reaction mix (1X Buffer 1, 0.7X Tubulin Glycerol Buffer, 1 mM GTP, and 2 mg/mL tubulin) was added to each well. Next, after 5 s of shaking, fluorescence detection (excitation: 340–360 nm, emission: 410–460 nm) was performed using a microplate fluorimeter. […] Data were plotted, and IC₅₀ values were determined by nonlinear regression using GraphPad Prism software 9.0.
^c Tubulin polymerization was evaluated using a commercial assay kit, following standard procedures. Compounds were incubated with tubulin, and fluorescence was measured over time to generate kinetic curves and determine the maximum polymerization rate (Vmax). These experiments were carried out in duplicate.

Structure (SMILES)	cell‐cycle distribution [1]	Bcl‐2 levels [2]	cyclin D1 levels [2]	p21 expression [2]	effect on tubulin polymerization curves (RFU) (tubulin)	IC50 (tubulin)
COc1ccc2c(C(=O)c3cc(OC)c(OC)c(OC)c3)c(C(F)(F)F)cn2c1 [Compound 8e, [6‐methoxy‐2‐(trifluoromethyl)indolizin‐1‐yl](3,4,5‐trimethoxyphenyl)methanone]	significant accumulation of cells in the G2/M phase	decrease	markedly decreased	upregulated	most potent	9.3 µM
CCCc1cn2cc(OC)ccc2c1C(=O)c1cc(OC)c(OC)c(OC)c1 [Compound 8h, (6‐methoxy‐2‐propylindolizin‐1‐yl)(3,4,5‐trimethoxyphenyl)methanone]	significant accumulation of cells in the G2/M phase	decrease	markedly decreased	upregulated	most potent	10.9 µM
